According to ChEMBL document CHEMBL2424578, “Synergistic effects of berberines with antibiotics on clinical multi-drug resistant isolates of methicillin-resistant Staphylococcus aureus (MRSA)” (2013):
Converted amounts (≈) assume the structure as drawn.

How the values were obtained:
Format in all cases: functional
Staphylococcus aureus [1] = assay: Antibacterial activity against SCCmec type 3 genotype-positive and methicillin-resistant Staphylococcus aureus clinical isolates after 24 hrs by broth microdilution method
Staphylococcus aureus [2] = assay: Antibacterial activity against SCCmec type 3 genotype-positive and methicillin-resistant Staphylococcus aureus clinical isolates after 24 hrs by chequerboard method in presence of cefazolin
Staphylococcus aureus [3] = assay: Antibacterial activity against SCCmec type 3 genotype-positive and methicillin-resistant Staphylococcus aureus clinical isolates after 24 hrs by chequerboard method in presence of azithromycin
Staphylococcus aureus [4] = assay: Antibacterial activity against SCCmec type 3 genotype-positive and methicillin-resistant Staphylococcus aureus clinical isolates after 24 hrs by chequerboard method in presence of levofloxacin
Staphylococcus aureus [5] = assay: Antibacterial activity against SCCmec type 3 genotype-positive and methicillin-resistant Staphylococcus aureus clinical isolates after 24 hrs by chequerboard method in presence of ampicillin

Row | Compound | MBC (Staphylococcus aureus [1]) [µg/mL] | MIC (Staphylococcus aureus [1]) [µg/mL] | FICI50 (Staphylococcus aureus [2]) | FICI90 (Staphylococcus aureus [2]) | fractional inhibitory concentration index (FICI) (Staphylococcus aureus [2]) | FICI50 (Staphylococcus aureus [3]) | FICI90 (Staphylococcus aureus [3]) | fractional inhibitory concentration index (FICI) (Staphylococcus aureus [3]) | FICI50 (Staphylococcus aureus [4]) | FICI90 (Staphylococcus aureus [4]) | fractional inhibitory concentration index (FICI) (Staphylococcus aureus [4]) | FICI50 (Staphylococcus aureus [5]) | FICI90 (Staphylococcus aureus [5]) | fractional inhibitory concentration index (FICI) (Staphylococcus aureus [5])
1 | COc1ccc2cc3[n+](cc2c1OC)CCc1cc2c(cc1-3)OCO2.[Cl-] [BERBERINE CHLORIDE] | 64 | 32 | 2 | 2 | 1.5 | 0.313 | 0.5 | 0.25 | 0.5 | 0.75 | 0.375 | 2 | 2 | 1.5
2 | CC1(C)S[C@@H]2[C@H](NC(=O)[C@H](N)c3ccccc3)C(=O)N2[C@H]1C(=O)O [AMPICILLIN] | 64 (≈ 183 µM) | – | – | – | – | – | – | – | – | – | – | – | – | –
3 | C[C@H]1COc2c(N3CCN(C)CC3)c(F)cc3c(=O)c(C(=O)O)cn1c23.C[C@H]1COc2c(N3CCN(C)CC3)c(F)cc3c(=O)c(C(=O)O)cn1c23.O [LEVOFLOXACIN] | 8 | 2 | – | – | – | – | – | – | – | – | – | – | – | –
4 | CC[C@H]1OC(=O)[C@H](C)[C@@H](O[C@H]2C[C@@](C)(OC)[C@@H](O)[C@H](C)O2)[C@H](C)[C@@H](O[C@@H]2O[C@H](C)C[C@H](N(C)C)[C@H]2O)[C@](C)(O)C[C@@H](C)CN(C)[C@H](C)[C@@H](O)[C@]1(C)O [AZITHROMYCIN] | – | 2000 (≈ 2670 µM) | – | – | – | – | – | – | – | – | – | – | – | –
5 | CN[C@H](CC(C)C)C(=O)N[C@H]1C(=O)N[C@@H](CC(N)=O)C(=O)N[C@H]2C(=O)N[C@H]3C(=O)N[C@H](C(=O)N[C@H](C(=O)O)c4cc(O)cc(O)c4-c4cc3ccc4O)[C@H](O)c3ccc(c(Cl)c3)Oc3cc2cc(c3O[C@@H]2O[C@H](CO)[C@@H](O)[C@H](O)[C@H]2O[C@H]2C[C@](C)(N)[C@H](O)[C@H](C)O2)Oc2ccc(cc2Cl)[C@H]1O [VANCOMYCIN] | 2 (≈ 1.38 µM) | – | – | – | – | – | – | – | – | – | – | – | – | –
6 | COS(=O)(=O)[O-].COc1ccc2c(c1OC)C[N+]1(C)CCc3cc4c(cc3C1=C2)OCO4 (stereo not drawn) | 256 | 64 | 2 | 2 | 1.5 | 0.375 | 0.5 | 0.188 | 0.375 | 0.5 | 0.25 | 2 | 2 | 1.5
